Test results reported in patent publication US20150087627A1, “COMBINATION OF KINASE INHIBITORS AND USES THEREOF” (Intellikine LLC, priority 2011, published 2015).
Where two headings read alike, the source gives them in different places.

Columns and labels:
Type in all cases: biochemical
PI3K β (p110β/p85α) = target: T1, PI3K β (p110β/p85α) (Homo sapiens, UniProt P42338); experiment: PI 3-Kinase (human) HTRF assay, PI3K β; conditions: read-out: PI3K β IC50
T1 construct: purchased Upstate / Millipore Corporation

PI3K δ = target: T2, PI3K δ (Homo sapiens, UniProt O00329); experiment: PI 3-Kinase (human) HTRF assay, PI3K δ; conditions: read-out: PI3K δ IC50
T2 construct: purchased Upstate / Millipore Corporation

mTOR = target: T3, mTOR (Homo sapiens, UniProt P42345); experiment: mTOR kinase inhibition assay (radiometric or LanthaScreen TR-FRET); conditions: read-out: mTORC IC50
T3 construct: purchased Invitrogen

PI3K α (p110α/p85α) = target: T4, PI3K α (p110α/p85α) (Homo sapiens, UniProt P42336); experiment: PI 3-Kinase (human) HTRF assay, PI3K α; conditions: read-out: PI3K α IC50
T4 construct: purchased Upstate / Millipore Corporation

PI3K γ (p110γ) = target: T5, PI3K γ (p110γ) (Homo sapiens, UniProt P48736); experiment: PI 3-Kinase (human) HTRF assay, PI3K γ; conditions: read-out: PI3K γ IC50
T5 construct: purchased Upstate / Millipore Corporation
T5 sequence (P48736 whole entry): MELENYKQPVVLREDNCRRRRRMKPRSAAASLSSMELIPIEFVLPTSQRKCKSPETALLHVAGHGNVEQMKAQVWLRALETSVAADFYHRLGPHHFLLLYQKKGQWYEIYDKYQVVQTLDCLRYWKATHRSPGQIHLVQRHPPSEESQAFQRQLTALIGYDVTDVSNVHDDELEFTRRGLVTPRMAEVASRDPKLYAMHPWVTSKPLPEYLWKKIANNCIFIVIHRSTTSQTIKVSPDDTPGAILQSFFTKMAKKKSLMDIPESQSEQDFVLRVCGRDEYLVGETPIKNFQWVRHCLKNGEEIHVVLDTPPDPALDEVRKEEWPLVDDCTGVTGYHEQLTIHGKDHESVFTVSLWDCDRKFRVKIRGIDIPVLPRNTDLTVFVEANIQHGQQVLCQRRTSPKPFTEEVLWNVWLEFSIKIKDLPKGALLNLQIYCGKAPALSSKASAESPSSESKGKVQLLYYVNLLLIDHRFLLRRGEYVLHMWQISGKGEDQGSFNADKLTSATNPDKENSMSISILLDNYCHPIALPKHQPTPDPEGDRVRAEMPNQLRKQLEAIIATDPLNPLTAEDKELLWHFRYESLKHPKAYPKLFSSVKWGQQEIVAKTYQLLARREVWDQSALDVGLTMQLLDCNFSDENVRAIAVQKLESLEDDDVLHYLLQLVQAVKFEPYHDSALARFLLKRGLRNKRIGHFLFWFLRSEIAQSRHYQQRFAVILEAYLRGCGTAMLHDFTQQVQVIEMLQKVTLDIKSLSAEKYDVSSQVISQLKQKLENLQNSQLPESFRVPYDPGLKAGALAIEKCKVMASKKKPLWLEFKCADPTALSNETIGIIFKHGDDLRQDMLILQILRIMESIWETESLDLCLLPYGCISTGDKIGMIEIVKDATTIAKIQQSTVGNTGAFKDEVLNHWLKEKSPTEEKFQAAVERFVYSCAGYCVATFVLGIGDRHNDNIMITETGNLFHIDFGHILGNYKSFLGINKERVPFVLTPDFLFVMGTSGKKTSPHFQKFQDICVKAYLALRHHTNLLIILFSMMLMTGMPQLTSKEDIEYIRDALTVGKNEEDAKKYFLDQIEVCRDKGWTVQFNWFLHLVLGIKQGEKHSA

T2 sequence (O00329 whole entry): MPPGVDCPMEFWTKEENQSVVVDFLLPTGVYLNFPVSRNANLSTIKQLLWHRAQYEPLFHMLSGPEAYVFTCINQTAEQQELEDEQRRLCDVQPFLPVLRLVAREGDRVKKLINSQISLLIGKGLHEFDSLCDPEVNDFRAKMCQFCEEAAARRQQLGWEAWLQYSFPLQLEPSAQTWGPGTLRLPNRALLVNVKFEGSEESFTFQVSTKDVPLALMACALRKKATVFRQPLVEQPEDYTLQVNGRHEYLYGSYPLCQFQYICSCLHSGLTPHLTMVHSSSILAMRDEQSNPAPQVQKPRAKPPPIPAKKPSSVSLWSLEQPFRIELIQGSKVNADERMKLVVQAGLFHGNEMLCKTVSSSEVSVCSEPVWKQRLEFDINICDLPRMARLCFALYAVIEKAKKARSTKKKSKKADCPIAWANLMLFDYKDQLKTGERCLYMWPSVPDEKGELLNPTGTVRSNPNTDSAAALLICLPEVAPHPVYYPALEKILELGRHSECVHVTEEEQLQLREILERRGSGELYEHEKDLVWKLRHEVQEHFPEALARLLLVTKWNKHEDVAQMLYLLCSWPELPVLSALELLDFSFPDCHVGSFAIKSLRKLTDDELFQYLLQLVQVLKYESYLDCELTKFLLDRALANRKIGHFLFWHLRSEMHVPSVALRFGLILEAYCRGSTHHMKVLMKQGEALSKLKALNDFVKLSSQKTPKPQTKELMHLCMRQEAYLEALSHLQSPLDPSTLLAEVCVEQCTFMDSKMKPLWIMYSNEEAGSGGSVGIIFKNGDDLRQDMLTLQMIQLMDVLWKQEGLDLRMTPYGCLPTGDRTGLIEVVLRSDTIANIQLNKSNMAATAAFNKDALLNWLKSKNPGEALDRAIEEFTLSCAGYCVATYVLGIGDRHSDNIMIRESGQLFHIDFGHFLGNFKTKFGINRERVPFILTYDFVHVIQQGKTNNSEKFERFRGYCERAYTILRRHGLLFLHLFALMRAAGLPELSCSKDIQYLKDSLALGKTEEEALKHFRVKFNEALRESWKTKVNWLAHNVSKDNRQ
T2 sequence (P27986 whole entry partner): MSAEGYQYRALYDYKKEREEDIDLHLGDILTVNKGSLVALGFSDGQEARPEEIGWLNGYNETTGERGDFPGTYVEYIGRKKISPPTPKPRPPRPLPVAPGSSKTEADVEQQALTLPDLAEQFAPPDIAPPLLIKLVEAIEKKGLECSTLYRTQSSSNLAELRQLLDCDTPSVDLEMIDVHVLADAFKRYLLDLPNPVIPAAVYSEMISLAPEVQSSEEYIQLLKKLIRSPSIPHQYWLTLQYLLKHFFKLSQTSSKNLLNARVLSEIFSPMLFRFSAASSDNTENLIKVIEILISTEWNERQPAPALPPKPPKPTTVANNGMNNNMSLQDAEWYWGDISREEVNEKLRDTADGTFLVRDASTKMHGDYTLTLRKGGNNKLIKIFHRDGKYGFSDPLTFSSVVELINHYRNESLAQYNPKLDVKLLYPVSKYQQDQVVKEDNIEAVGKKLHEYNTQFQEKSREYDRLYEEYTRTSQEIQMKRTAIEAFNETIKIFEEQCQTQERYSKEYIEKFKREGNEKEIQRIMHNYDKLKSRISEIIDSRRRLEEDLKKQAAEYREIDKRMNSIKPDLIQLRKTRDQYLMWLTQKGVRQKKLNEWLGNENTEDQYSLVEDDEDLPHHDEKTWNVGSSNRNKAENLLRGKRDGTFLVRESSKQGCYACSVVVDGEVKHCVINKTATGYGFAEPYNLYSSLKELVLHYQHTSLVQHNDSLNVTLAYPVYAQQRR
T3 sequence (P42345 1360-2549 limits assumed): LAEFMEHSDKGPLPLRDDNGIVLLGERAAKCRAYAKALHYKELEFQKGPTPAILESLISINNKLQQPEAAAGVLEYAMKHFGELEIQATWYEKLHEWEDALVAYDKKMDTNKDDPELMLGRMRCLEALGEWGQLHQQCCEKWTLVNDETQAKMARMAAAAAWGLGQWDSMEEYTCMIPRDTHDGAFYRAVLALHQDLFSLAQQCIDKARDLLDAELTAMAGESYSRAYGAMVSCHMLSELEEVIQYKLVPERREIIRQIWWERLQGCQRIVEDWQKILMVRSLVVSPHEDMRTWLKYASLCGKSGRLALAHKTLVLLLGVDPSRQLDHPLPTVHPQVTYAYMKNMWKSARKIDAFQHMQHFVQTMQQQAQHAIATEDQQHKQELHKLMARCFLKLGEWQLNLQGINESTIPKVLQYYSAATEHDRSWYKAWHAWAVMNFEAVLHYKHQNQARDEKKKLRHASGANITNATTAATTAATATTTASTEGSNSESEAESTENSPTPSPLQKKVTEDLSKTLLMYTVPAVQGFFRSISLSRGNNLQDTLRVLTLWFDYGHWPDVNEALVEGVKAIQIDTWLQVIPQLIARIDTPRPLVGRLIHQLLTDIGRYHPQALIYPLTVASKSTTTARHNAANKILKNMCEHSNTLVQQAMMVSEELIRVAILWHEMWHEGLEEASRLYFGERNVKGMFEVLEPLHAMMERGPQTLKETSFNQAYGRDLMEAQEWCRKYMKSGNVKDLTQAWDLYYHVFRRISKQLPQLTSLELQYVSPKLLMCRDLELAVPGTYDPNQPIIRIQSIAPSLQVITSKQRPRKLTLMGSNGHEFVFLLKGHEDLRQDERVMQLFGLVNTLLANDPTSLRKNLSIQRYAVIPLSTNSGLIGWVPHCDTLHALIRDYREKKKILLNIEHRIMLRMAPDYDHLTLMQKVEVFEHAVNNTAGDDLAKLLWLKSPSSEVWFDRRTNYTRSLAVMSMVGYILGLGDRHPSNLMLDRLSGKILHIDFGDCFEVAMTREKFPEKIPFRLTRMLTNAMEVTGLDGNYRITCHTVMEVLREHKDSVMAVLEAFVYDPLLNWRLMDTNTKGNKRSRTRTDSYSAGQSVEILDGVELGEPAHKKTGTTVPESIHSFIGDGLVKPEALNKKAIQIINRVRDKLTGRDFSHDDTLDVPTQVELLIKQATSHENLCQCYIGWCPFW

| Structure (SMILES) | IC50 (PI3K β (p110β/p85α)) | IC50 (PI3K δ) | IC50 (mTOR) | IC50 (PI3K α (p110α/p85α)) | IC50 (PI3K γ (p110γ)) | IC50 (PI3K β (p110β/p85α); Table 4 (PI3K α inhibitors)) | IC50 (PI3K δ; Table 4 (PI3K α inhibitors)) | IC50 (mTOR; Table 4 (PI3K α inhibitors)) | IC50 (PI3K α (p110α/p85α); Table 4 (PI3K α inhibitors)) | IC50 (PI3K γ (p110γ); Table 4 (PI3K α inhibitors)) |
| --- | --- | --- | --- | --- | --- | --- | --- | --- | --- | --- |
| Nc1nc2cc(-c3ccc4ncc(N5CC(N6CCN(C7CC7)CC6)C5)nc4c3)ccc2o1 [Compound 313] | < 10000 nM | < 10000 nM | < 10000 nM | < 100 nM | < 10000 nM |  |  |  |  |  |
| Nc1nc2cc(-c3ccc4ncc(N5CC[C@H](O)C5)nc4c3)ccc2o1 [Compound 262] | < 1000 nM | > 10000 nM | < 10000 nM | < 100 nM | < 1000 nM |  |  |  |  |  |
| CC(=O)N1CCN(C2CN(c3cnc4ccc(-c5ccc6oc(N)nc6c5)cc4n3)C2)CC1 [Compound 327] | < 10000 nM | < 1000 nM | > 10000 nM | < 100 nM | < 1000 nM |  |  |  |  |  |
| CN1CC(C(=O)N2CCN(c3cnc4ccc(-c5ccc6oc(N)nc6c5)cc4n3)CC2)C1 [Compound 156] | < 1000 nM | < 1000 nM | > 10000 nM | < 100 nM | < 1000 nM |  |  |  |  |  |
| Nc1ncc(-c2ccc3oc(N)nc3c2)cn1 [Compound 233] | > 10000 nM | > 10000 nM | > 10000 nM | > 10000 nM | < 10000 nM |  |  |  |  |  |
| CC(C)N1CCN(C2CN(c3cnc4ccc(-c5ccc6oc(N)nc6c5)nc4c3)C2)CC1 [Compound 623] |  |  |  |  |  | < 1000 nM | < 1000 nM | > 10000 nM | < 100 nM | < 10000 nM |
| CCOC(=O)N1CCN(c2cnc3ccc(-c4ccc5oc(N)nc5c4)cc3n2)CC1 [Compound 119] | < 10000 nM | < 10000 nM | < 10000 nM | < 100 nM | < 10000 nM |  |  |  |  |  |
| Nc1nc2cc(-c3ccc4ncc(NCCN5CCOCC5)nc4c3)ccc2o1 [Compound 133] | < 1000 nM | < 1000 nM | > 10000 nM | < 100 nM | < 1000 nM |  |  |  |  |  |
| Nc1nc2cc(-c3ccn4ncc(-c5ccncc5)c4n3)ccc2o1 [Compound 62] | < 100 nM | < 100 nM | < 100 nM | < 100 nM | < 100 nM |  |  |  |  |  |
| CS(=O)(=O)N1CCN(C2CN(c3cnc4ccc(-c5ccc6oc(N)nc6c5)cc4n3)C2)CC1 [Compound 328] | < 10000 nM | < 10000 nM | > 10000 nM | < 100 nM | < 10000 nM |  |  |  |  |  |
| NCC(=O)N1CCN(c2cnc3ccc(-c4ccc5oc(N)nc5c4)nc3c2)CC1 [Compound 588] |  |  |  |  |  | < 1000 nM | < 1000 nM | > 10000 nM | < 100 nM | < 1000 nM |
| Nc1nc2cc(-c3ccc4ncc(N5CCN(C(=O)[C@@H]6CCCN6)CC5)nc4c3)ccc2o1 [Compound 121] | < 100 nM | < 100 nM | > 10000 nM | < 100 nM | < 100 nM |  |  |  |  |  |
| CC(C)(N)C(=O)N1CCN(c2cnc3ccc(-c4ccc5oc(N)nc5c4)nc3c2)CC1 [Compound 594] |  |  |  |  |  | < 10000 nM | < 1000 nM | > 10000 nM | < 100 nM | < 1000 nM |
| Nc1nc2cc(-c3ccc4ncc(N5CC(C(=O)N6CCN(C7CC7)CC6)C5)nc4c3)ccc2o1 [Compound 276] | < 10000 nM | < 1000 nM | < 10000 nM | < 100 nM | < 1000 nM |  |  |  |  |  |
| Cc1nccn1C1CN(c2cnc3ccc(-c4ccc5oc(N)nc5c4)cc3n2)C1 [Compound 354] | < 10000 nM | < 10000 nM | < 10000 nM | < 100 nM | < 10000 nM |  |  |  |  |  |
| Nc1nc2ccc(-c3ccc4nccc(-c5ccncc5)c4c3)cc2s1 [Compound 3] | > 10000 nM | < 1000 nM | < 1000 nM | < 100 nM | < 1000 nM |  |  |  |  |  |
| CCN(CC)C1CN(c2cnc3ccc(-c4ccc5oc(N)nc5c4)cc3n2)C1 [Compound 324] | < 10000 nM | < 10000 nM | > 10000 nM | < 100 nM | < 1000 nM |  |  |  |  |  |

| Structure (SMILES) | IC50 (PI3K β (p110β/p85α)) | IC50 (PI3K δ) | IC50 (mTOR) | IC50 (PI3K α (p110α/p85α)) | IC50 (PI3K γ (p110γ)) | IC50 (PI3K β (p110β/p85α); Table 4 (PI3K α inhibitors)) | IC50 (PI3K δ; Table 4 (PI3K α inhibitors)) | IC50 (mTOR; Table 4 (PI3K α inhibitors)) | IC50 (PI3K α (p110α/p85α); Table 4 (PI3K α inhibitors)) | IC50 (PI3K γ (p110γ); Table 4 (PI3K α inhibitors)) |
| --- | --- | --- | --- | --- | --- | --- | --- | --- | --- | --- |
| CS(=O)(=O)N1CCN(C2CCN(c3cnc4ccc(-c5ccc6oc(N)nc6c5)cc4n3)CC2)CC1 [Compound 377] | < 10000 nM | < 10000 nM | < 10000 nM | < 100 nM | < 1000 nM |  |  |  |  |  |
| CN1CCN(C2CN(C(=O)c3cnc4ccc(-c5ccc6oc(N)nc6c5)cn34)C2)CC1 [Compound 303] | > 10000 nM | < 10000 nM | < 10000 nM | < 100 nM | > 10000 nM |  |  |  |  |  |
| N#Cc1cnc2ccc(-c3ccc4oc(N)nc4c3)cc2c1 [Compound 93] | > 10000 nM | > 10000 nM | < 10000 nM | < 1000 nM | < 1000 nM |  |  |  |  |  |
| CN1CCN(C2CN(c3cnc4ccc(-c5ccc6oc(N)nc6c5)cc4n3)C2)CC1=O [Compound 323] | < 10000 nM | < 10000 nM | > 10000 nM | < 100 nM | < 1000 nM |  |  |  |  |  |
| Nc1nc2cc(-c3ccc4ncc(N5CC(N6CCOCC6)C5)nc4c3)c(F)cc2o1 [Compound 373] | < 10000 nM | < 10000 nM | > 10000 nM | < 100 nM | < 10000 nM |  |  |  |  |  |
| Nc1nc2cc(-c3ccc4ncc(-c5cccnc5)nc4c3)ccc2o1 [Compound 76] | > 10000 nM | > 10000 nM | < 10000 nM | < 100 nM | < 1000 nM |  |  |  |  |  |
| CN1CCN(C2CN(c3cnc4ccc(-c5ccc6oc(N)nc6c5)nc4c3)C2)CC1 [Compound 625] |  |  |  |  |  | < 1000 nM | < 1000 nM | > 10000 nM | < 100 nM | < 1000 nM |
| Nc1nc2cc(-c3ccc4ncc(=O)[nH]c4c3)ccc2o1 [Compound 72] | < 1000 nM | > 10000 nM | < 1000 nM | < 100 nM | < 100 nM |  |  |  |  |  |
| C[C@H]1CN(C2CN(c3cnc4ccc(-c5ccc6oc(N)nc6c5)cc4n3)C2)CCN1 [Compound 350] | < 10000 nM | < 10000 nM | > 10000 nM | < 100 nM | > 10000 nM |  |  |  |  |  |
| CN1CCN(c2cnc3ccc(-c4ccc5oc(N)nc5c4)cc3n2)CC1=O [Compound 277] | < 1000 nM | < 10000 nM | < 10000 nM | < 100 nM | < 1000 nM |  |  |  |  |  |
| CC(C)N1CCN(c2cnc3ccc(-c4ccc5oc(N)nc5c4)nc3c2)CC1 [Compound 595] |  |  |  |  |  | < 1000 nM | < 1000 nM | > 10000 nM | < 100 nM | < 1000 nM |
| Nc1nc2cc(-c3ccc4ncc(N5CC(n6cccn6)C5)nc4c3)ccc2o1 [Compound 318] | < 10000 nM | > 10000 nM | < 1000 nM | < 100 nM | < 1000 nM |  |  |  |  |  |
| Cc1cc2oc(N)nc2cc1-c1ccc2ncc(N3CC(N4CCOCC4)C3)nc2c1 [Compound 353] | > 10000 nM | > 10000 nM | > 10000 nM | < 10000 nM | > 10000 nM |  |  |  |  |  |
| Nc1nc2cc(-c3ccc4ncc(N5CC(C(=O)N6CCOCC6)C5)nc4c3)ccc2o1 [Compound 169] | < 1000 nM | < 1000 nM | < 10000 nM | < 100 nM | < 1000 nM |  |  |  |  |  |
| COc1ncc(-c2ccc3ncc(C(=O)N4CCOCC4)n3c2)cc1NS(=O)(=O)c1ccc(F)cc1F [Compound 417] | < 100 nM | < 100 nM | < 1000 nM | < 100 nM | < 100 nM |  |  |  |  |  |
| CC(=O)Nc1ncc(-c2ccc3oc(N)nc3c2)s1 [Compound 235] | > 10000 nM | < 10000 nM | < 10000 nM | < 10000 nM | < 10000 nM |  |  |  |  |  |
